Values quoted from earlier work as cited in patent US11278572B2, “Reducing CXCR4 expression and/or function to enhance engraftment of hematopoietic stem cells” (THE UNITED STATES OF AMERICA, as represented by the …, priority 2014, dated 2022).

Tests used:
HPV = conditions: WHIM patients
CXCR4 = conditions: WHIM patients, small studies

In the case of `CC(C)Cn1cnc2c(N)nc3ccccc3c21` [imiquimod], the “effect on cutaneous and anogenital HPV disease” value (HPV) is given as “ineffective”.
In the case of `c1cc(CN2CCCNCCNCCCNCC2)ccc1CN1CCCNCCNCCCNCC1` [Plerixafor, plerixafor], the “effect on panleukopenia and WHIM syndrome” value (CXCR4) is listed as “successful at reversing the panleukopenia and treating WHIM syndrome”.
